Assay results taken from patent US20100247435A1, “MEASUREMENT OF NEURAL ACTIVITY” (priority 2007, published 2010).

Assay: Biodistribution of 3H compound in rat
Assay type: in vivo, Rats (Wistar)
Conditions: Wistar rat, 2, 5, 20 and 40 min p.i.
Method: A tritiated version of 3-[2,4-Difluoro-phenoxy]-phenyl-pyrazole-1-carboxylic acid amide (“Hammersmith compound” in FIG. 1) was custom prepared by GE Healthcare, Cardiff.
Rats (Wistar, ca. 150 g; Charles River UK Ltd) were injected with 0.37 MBq of [^3H]-3-[2,4-Difluoro-phenoxy]-phenyl-pyrazole-1-carboxylic acid amide, as an intravenous bolus via the tail vein. Rats were killed by cervical dislocation at 2, 5, 20 and 40 min post injection (p.i.). Brain (separated as cortex and hippocampus), blood, and major organs were collected, weighed and burned using a Packard Tissue Oxidizer model 307 (Packard Instrument Co., Meriden, Conn.). Samples were then counted in a β-counter (Rack Beta, Perkin Elmer LAS (UK) Ltd).

For NC(=O)n1ccc(-c2ccc(Oc3ccc(F)cc3F)cc2)n1 [[^3H]-3-[2,4-Difluoro-phenoxy]-phenyl-pyrazole-1-carboxylic acid amide], the time activity curves (0.37 MBq i.v., FIG. 1) was “consistent with reversible binding” and the “brain uptake of the compound” value (0.37 MBq intravenous bolus via tail vein, % id/g shown in FIG. 1) was “good”.
